Reference: patent US4963566A, “Benzimidazolyl-sulfinyl-tetrahydroquinolines” (Otsuka Pharmaceutical Co., Ltd., priority 1986, dated 1990)

Each molecule was assayed against T1, H^+ +K^+ ATPase (Sus scrofa, UniProt P19156) (assay: H+ +K+ ATPase inhibition (inorganic phosphoric acid release)). Settings: enzyme prepared from porcine stomach; 30 min with compound at room temperature, pH 6.1; then 30 min at 37° C., pH 7.4, 20 mM KCl.
T1 construct: prepared from porcine stomach; from tissue; host or cells: porcine stomach
T1 sequence (P19156 2-1034 limits assumed): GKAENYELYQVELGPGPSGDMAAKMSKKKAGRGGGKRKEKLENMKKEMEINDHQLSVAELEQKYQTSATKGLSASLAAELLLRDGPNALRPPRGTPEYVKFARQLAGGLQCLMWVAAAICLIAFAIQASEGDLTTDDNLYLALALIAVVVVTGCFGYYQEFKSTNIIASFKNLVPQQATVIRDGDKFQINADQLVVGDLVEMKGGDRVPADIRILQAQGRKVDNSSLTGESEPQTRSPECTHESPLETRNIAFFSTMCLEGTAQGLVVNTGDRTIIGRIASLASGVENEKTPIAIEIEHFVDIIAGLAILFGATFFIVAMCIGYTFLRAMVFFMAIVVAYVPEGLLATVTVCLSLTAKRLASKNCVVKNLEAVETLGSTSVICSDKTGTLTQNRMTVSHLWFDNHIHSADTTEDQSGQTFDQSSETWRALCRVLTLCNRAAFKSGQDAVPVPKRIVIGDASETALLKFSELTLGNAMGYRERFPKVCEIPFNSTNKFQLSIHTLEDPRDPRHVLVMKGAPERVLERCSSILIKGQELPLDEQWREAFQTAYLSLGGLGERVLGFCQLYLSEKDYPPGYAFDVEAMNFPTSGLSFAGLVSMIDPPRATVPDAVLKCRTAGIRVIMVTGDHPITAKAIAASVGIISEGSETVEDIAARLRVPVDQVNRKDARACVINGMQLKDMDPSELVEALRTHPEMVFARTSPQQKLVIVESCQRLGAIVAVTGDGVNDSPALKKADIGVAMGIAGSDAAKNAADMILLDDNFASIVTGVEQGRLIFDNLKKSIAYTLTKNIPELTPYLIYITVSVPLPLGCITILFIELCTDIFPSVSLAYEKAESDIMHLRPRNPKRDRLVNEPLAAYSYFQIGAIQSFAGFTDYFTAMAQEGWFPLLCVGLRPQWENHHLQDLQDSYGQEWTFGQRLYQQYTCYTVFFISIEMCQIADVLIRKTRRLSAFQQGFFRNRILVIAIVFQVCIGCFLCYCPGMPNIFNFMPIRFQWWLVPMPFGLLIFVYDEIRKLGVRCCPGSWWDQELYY
T1 sequence (P18434 whole entry partner): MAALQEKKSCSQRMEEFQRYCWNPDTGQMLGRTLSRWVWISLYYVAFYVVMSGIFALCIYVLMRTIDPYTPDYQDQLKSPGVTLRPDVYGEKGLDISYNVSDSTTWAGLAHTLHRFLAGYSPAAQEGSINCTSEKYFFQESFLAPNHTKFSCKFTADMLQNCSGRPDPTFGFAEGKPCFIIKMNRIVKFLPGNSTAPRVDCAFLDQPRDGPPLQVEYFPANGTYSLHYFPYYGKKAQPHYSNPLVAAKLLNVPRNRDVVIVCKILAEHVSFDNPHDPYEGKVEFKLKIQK
Format: biochemical
Protocol: H^+ +K^+ ATPase (adenosine triphosphatase) (amount of protein: 10 μg) prepared from porcine stomach was added to a Pipes-TRIS [i.e. 2-amino-2-(hydroxymethyl)-1,3-propanediol] buffer solution (pH 6.1) containing 2 mM of piperazine N,N'-bis(2-ethanesulfonic acid), and the mixture was let stand at room temperature. A test compound was dissolved in dimethyl formamide, and the mixture was added to said H^+ +K^+ ATPase buffer solution so that the final concentration should be 1% and let stand for reaction for 30 minutes at room temperature. Then a 75 mM Pipes-TRIS buffer (1 ml, pH 7.4) (containing 4 mM MgCl2, 4 mM Na2 ATP, and 20 mM KCl) and a 75 mM Pipes-TRIS buffer (1 ml, pH 7.4) (containing 4 mM MgCl2, and 4 mM Na2 ATP) were added to the solution individually to make two kinds of samples and these samples were presented for reaction for 30 minutes at 37° C. 40% Trichloroacetic acid (0.3 ml) was added to each sample to stop the reaction. The solution were subjected to centrifugal separation (3000 rpm) for 10 minutes, and the supernatant was taken off, then the formed inorganic phosphoric acid was measured by Fiske and Subbarow's method [J. Biol. Chem. vol. 66, 375 (1925)]. The value of deducting the amount of inorganic phosphoric acid taken from the Pipes-Tris buffer not containing 20 mM KCl from that taken from the Pipes-Tris buffer containing 20 mM KCl was calculated in terms of unit protein and unit hour to be defined as an activity index of enzyme. Inhibition level (%) in doses of administration was estimated by control values and activity indices of enzyme, and from the obtained inhibition level (%), IC50 (dose of administration of compounds to inhibit in 50%) was obtained.

| IC50 | Molecule |
| --- | --- |
| 620 nM | CCN1CCCc2cccc(C[S+]([O-])c3nc4cc(OC)c(F)cc4[nH]3)c21 (stereo not drawn) [Test compound No. 6, 1-ethyl-8-(5-fluoro-6-methoxy-2-benzimidazolyl)sulfinylmethyl-1,2,3,4-tetrahydroquinoline] |
| 440 nM | CCN1CCCc2cccc(C[S+]([O-])c3nc4cc(F)c(F)cc4[nH]3)c21 (stereo not drawn) [Test compound No. 5, 1-ethyl-8-(5,6-difluoro-2-benzimidazolyl)sulfinylmethyl-1,2,3,4-tetrahydroquinoline] |
| 410 nM | Cc1cccc2nc([S+]([O-])Cc3cccc4c3N(C)CCC4)[nH]c12 (stereo not drawn) [Test compound No. 19, 1-methyl-8-(4-methyl-2-benzimidazolyl)sulfinylmethyl-1,2,3,4-tetrahydroquinoline] |
| 4900 nM | CCN1CC(C(=O)OC)Cc2cccc(C[S+]([O-])c3nc4ccccc4[nH]3)c21 (stereo not drawn) [Test compound No. 53, 1-ethyl-8-(2-benzimidazolyl)sulfinylmethyl-3-methoxycarbonyl-1,2,3,4-tetrahydroquinoline] |
| 3300 nM | C=CCNC1CCN(CC)c2c(C[S+]([O-])c3nc4ccc(C)cc4[nH]3)cccc21 (stereo not drawn) [Test compound No. 60, 1-ethyl-8-(5-methyl-2-benzimidazolyl)sulfinylmethylmethyl-4-allylamino-1,2,3,4-tetrahydroquinoline] |
| 4900 nM | CCOC(N(C)C1CCN(CC)c2c(C[S+]([O-])c3nc4cc(F)c(OC)cc4[nH]3)cccc21)C(F)(F)F (stereo not drawn) [Test compound No. 69, 1-ethyl-8-(5-fluoro-6-methoxy-2-benzimidazolyl)sulfinylmethyl-4-[N-methyl-N-(2,2,2-trifluoro-1ethoxyethyl)]amino-1,2,3,4-tetrahydroquinoline] |
| 690 nM | COc1ccc2nc([S+]([O-])Cc3cccc4c3N(C)CCC4)[nH]c2c1 (stereo not drawn) [Test compound No. 16, 1-methyl-8-(5-methoxy-2-benzimidazolyl)sulfinylmethyl-1,2,3,4-tetrahydroquinoline] |
| 450 nM | CCN1CCCc2cccc(C[S+]([O-])c3nc4ccc(OC)cc4[nH]3)c21 (stereo not drawn) [Test compound No. 3, 1-ethyl-8-(5-methoxy-2-benzimidazolyl)sulfinylmethyl-1,2,3,4-tetrahydroquinoline] |
| 5900 nM | CCN1CC(C(=O)N2CCCCC2)Cc2cccc(C[S+]([O-])c3nc4ccccc4[nH]3)c21 (stereo not drawn) [Test compound No. 58, 1-ethyl-8-(2-benzimidazolyl)sulfinylmethyl-3-(1-piperizinyl)carbonyl-1,2,3,4-tetrahydroquinoline] |
| 4000 nM | CCN1CCC(N(C)C2CC2)c2cccc(C[S+]([O-])c3nc4cc(F)c(OC)cc4[nH]3)c21 (stereo not drawn) [Test compound No. 64, 1-ethyl-8-(5-fluoro-6-methoxy-2-benzimidazolyl)sulfinylmethyl-4-(N-methyl-N-cyclopropyl)amino-1,2,3,4-tetrahydroquinoline] |
| 5700 nM | CCN1CCC(N(C)C(C)=O)c2cccc(C[S+]([O-])c3nc4ccccc4[nH]3)c21 (stereo not drawn) [Test compound No. 59, 1-ethyl-8-(2-benzimidazolyl)sulfinylmethyl-4-(N-methyl-N-acetyl)amino-1,2,3,4-tetrahydroquinoline] |
| 2200 nM | CCN1CCCc2cccc(C[S+]([O-])c3nc4ccc(C(C)=O)cc4[nH]3)c21 (stereo not drawn) [Test compound No. 9, 1-ethyl-8-(5-acetyl-2-benzimidazolyl)sulfinylmethyl-1,2,3,4-tetrahydroquinoline] |
| 450 nM | CCN1CCCc2cccc(C[S+]([O-])c3nc4ccccc4[nH]3)c21 (stereo not drawn) [Test compound No. 36, 1-ethyl-8-(2-benzimidazolyl)sulfinylmethyl-1,2,3,4-tetrahydroquinoline] |
| 520 nM | COc1ccc2nc([S+]([O-])Cc3cccc4c3N(C)CC=C4C)[nH]c2c1 (stereo not drawn) [Test compound No. 40, 1,4-dimethyl-8-(5-methoxy-2-benzimidazolyl)sulfinylmethyl-1,2-dihydroquinoline] |
| 830 nM | C=CCN1CC(C)Cc2cccc(C[S+]([O-])c3nc4ccccc4[nH]3)c21 (stereo not drawn) [Test compound No. 38, 1-allyl-8-(2-benzimidazolyl)sulfinylmethyl-3-methyl-1,2,3,4-tetrahydroquinoline] |
| 330 nM | CCN1CC(C)(C)C(OC)c2cccc(C[S+]([O-])c3nc4ccc(C)cc4[nH]3)c21 (stereo not drawn) [Test compound No. 66, 1-ethyl-8-(5-methyl-2-benzimidazolyl)sulfinylmethyl-4-methoxy-3,3-dimethyl-1,2,3,4-tetrahydroquinoline] |
| 610 nM | 1,4-dimethyl-8-(5-fluoro-6-methyl-2-benzimidazolyl)sulfinylmethyl-1,2,3,4- tetrahydroquinoline [Test compound No. 30] |

| IC50 | Molecule |
| --- | --- |
| 330 nM | C=CCN1CCCc2cccc(C[S+]([O-])c3nc4ccccc4[nH]3)c21 (stereo not drawn) [Test compound No. 21, 1-allyl-8-(2-benzimidazolyl)sulfinylmethyl-1,2,3,4-tetrahydroquinoline] |
| 220 nM | CCN1CCCc2cccc(C[S+]([O-])c3nc4ccc(Cl)cc4[nH]3)c21 (stereo not drawn) [Test compound No. 8, 1-ethyl-8-(5-chloro-2-benzimidazolyl)sulfinylmethyl-1,2,3,4-tetrahydroquinoline] |
| 5100 nM | CCN1CC(C(=O)N(C)C)Cc2cccc(C[S+]([O-])c3nc4ccccc4[nH]3)c21 (stereo not drawn) [Test compound No. 55, 1-ethyl-8-(2-benzimidazolyl)sulfinylmethyl-3-dimethylcarbamoyl-1,2,3,4-tetrahydroquinoline 1/3-hydrate] |
| 1600 nM | C#CCN1CCCc2cccc(C[S+]([O-])c3nc4ccccc4[nH]3)c21 (stereo not drawn) [Test compound No. 26, 1-propargyl-8-(2-benzimidazolyl)sulfinylmethyl-1,2,3,4-tetrahydroquinoline] |
| 490 nM | C=CCN1CCCc2cccc(C[S+]([O-])c3nc4ccc(F)cc4[nH]3)c21 (stereo not drawn) [Test compound No. 23, 1-allyl-8-(5-fluoro-2-benzimidazolyl)sulfinylmethyl-1,2,3,4-tetrahydroquinoline] |
| 2900 nM | C=CCOC1CCN(CC)c2c(C[S+]([O-])c3nc4ccccc4[nH]3)cccc21 (stereo not drawn) [Test compound No. 51, 1-ethyl-8-(2-benzimidazolyl)sulfinylmethyl-4-allyloxy-1,2,3,4-tetrahydroquinoline] |
| 960 nM | C=CCN1CCCc2cccc(C[S+]([O-])c3nc4ccc(OC)cc4[nH]3)c21 (stereo not drawn) [Test compound No. 22, 1-allyl-8-(5-methoxy-2-benzimidazolyl)sulfinylmethyl-1,2,3,4-tetrahydroquinoline] |
| 130 nM | CC1=CCN(C)c2c(C[S+]([O-])c3nc4ccc(C)cc4[nH]3)cccc21 (stereo not drawn) [Test compound No. 39, 1,4-dimethyl-8-(5-methyl-2-benzimidazolyl)sulfinylmethyl-1,2-dihydroquinoline] |
| 170 nM | CCN1CCCc2cccc(C[S+]([O-])c3nc4cc(C)c(C)cc4[nH]3)c21 (stereo not drawn) [Test compound No. 13, 1-ethyl-8-(5,6-dimethyl-2-benzimidazolyl)sulfinylmethyl-1,2,3,4-tetrahydroquinoline] |
| 4700 nM | CCN1CCC(=NO)c2cccc(C[S+]([O-])c3nc4ccccc4[nH]3)c21 (stereo not drawn) [Test compound No. 50, 1-ethyl-8-(2-benzimidazolyl)sulfinylmethyl-4-hydroxyimino-1,2,3,4-tetrahydroquinoline] |
| 1200 nM | CCN1CC(CO)Cc2cccc(C[S+]([O-])c3nc4ccccc4[nH]3)c21 (stereo not drawn) [Test compound No. 54, 1-ethyl-8-(2-benzimidazolyl)sulfinylmethyl-3-hydroxymethyl-1,2,3,4-tetrahydroquinoline] |
| 1100 nM | CCN1CCC(OC)c2cccc(C[S+]([O-])c3nc4ccccc4[nH]3)c21 (stereo not drawn) [Test compound No. 48, 1-ethyl-8-(2-benzimidazolyl)sulfinylmethyl-4-methoxy-1,2,3,4-tetrahydroquinoline] |
| 170 nM | CN1CCCc2cccc(C[S+]([O-])c3nc4ccccc4[nH]3)c21 (stereo not drawn) [Test compound No. 14, 1-methyl-8-(2-benzimidazolyl)sulfinylmethyl-1,2,3,4-tetrahydroquinoline] |
| 580 nM | C=CCN1CCCc2cccc(C[S+]([O-])c3nc4ccc(C)cc4[nH]3)c21 (stereo not drawn) [Test compound No. 33, 1-allyl-8-(5-methyl-2-benzimidazolyl)sulfinylmethyl-1,2,3,4-tetrahydroquinoline] |
| 2100 nM | Cc1ccc2nc([S+]([O-])Cc3cccc4c3N(Cc3ccc(F)cc3)CCC4)[nH]c2c1 (stereo not drawn) [Test compound No. 34, 1-(4-fluorobenzyl)-8-(5-methyl-2-benzimidazolyl)sulfinylmethyl-1,2,3,4-tetrahydroquinoline] |
| 200 nM | CN1CCCc2cccc(C[S+]([O-])c3nc4ccc(Cl)cc4[nH]3)c21 (stereo not drawn) [Test compound No. 18, 1-methyl-8-(5-chloro-2-benzimidazolyl)sulfinylmethyl-1,2,3,4-tetrahydroquinoline] |
